Assay results from patent publication US4289775A, “Penicillins” (Karl Thomae GmbH, priority 1979, dated 1981).
In brackets after ≈: the same amount, converted by molar mass.

How the values were obtained:
[1] = system: Klebsiella pneumoniae 272; assay: serial dilution test in the microtiter system, MIC; type: cell-based; settings: Klebs. pneum. 272, 37° C., 18-20 hours
Procedure: (§1) The tests were performed according to the method of the serial dilution test in the microtiter system. The effect of the test substances on bacteriostasis was examined in a fluid medium. The bacteristatic activity was examined at the following concentrations: 80, 40, 20, 10, 5, 2.5, 1.25, 0.6, 0.3, 0.08 and 0.01 μgm/ml.
(§2) The nutrient medium consisted of: 10 gm of peptone, 8 gm of meat extract oxoid, 3 gm of sodium chloride, and 2 gm of sec. sodium phosphate diluted with distilled water to 1000 ml (pH 7.2-7.4). Only in the test against streptococci was 1% of glucose added. The age of the primary cultures was about 20 hours. The standardization of the microorganism suspension was effected by means of a photometer according to the method of Eppendorf (test tube diameter 14 mm, filter 546 nm), using for comparison a barium sulfate suspension formed by the addition of 3.0 ml of 1% barium chloride solution to 97 ml of 1% sulfuric acid. After the standardization, the Streptococcus aronson was further diluted to a concentration of 1:15 and the other microorganisms to a concentration of 1:1500 using a sodium chloride solution. 16 mgm of the test compound were placed into a 10 ml measuring flask, and the flask was filled up to the mark with the solvent. The further dilution series was standardized with distilled water or the particular solvent.
(§3) The cavities of microtiter plates were filled with 0.2 ml of nutrient medium. Then, 0.01 ml of the appropriate test compound solution was added, followed by inoculation with 0.01 ml of the standardized microorganism suspension. The bacteria were incubated at 37° C. for 18-20 hours. Control tests using only the solvent were carried out simultaneously.
(§4) The measurement was carried out macroscopically to determine the minimum inhibitory concentration (the lowest still bacteriostatically effective concentration).
(§5) Staphylococcus aureus SG 511, Escherichia coli ATCC 9637 and 11775, Pseudomonas aeruginosa Hamburgensis, ATCC 10145 and Pseudomonas aeruginosa Walter, Serratia marcescens ATCC 13880, Klebsiella pneumoniae ATCC 10031 and 272 and Proteus mirabilis Hamburgensis.

[2] = system: Pseudomonas aeruginosa Walter; assay: serial dilution test in the microtiter system, MIC; type: cell-based; settings: Pseud. aerug. Walter, 37° C., 18-20 hours
Procedure: as §1, §2, §3, §4, §5

[3] = system: Pseudomonas aeruginosa ATCC 10145; assay: serial dilution test in the microtiter system, MIC; type: cell-based; settings: ATCC10145, Pseud. aerug. ATCC 10145, 37° C., 18-20 hours
Procedure: as §1, §2, §3, §4, §5

[4] = system: Pseudomonas aeruginosa Hamburgensis; assay: serial dilution test in the microtiter system, MIC; type: cell-based; settings: Pseud. aerug. hamb., 37° C., 18-20 hours
Procedure: as §1, §2, §3, §4, §5

[5] = system: Klebsiella pneumoniae ATCC 10031; assay: serial dilution test in the microtiter system, MIC; type: cell-based; settings: ATCC10031, Klebs. pneum. ATCC 10031, 37° C., 18-20 hours
Procedure: as §1, §2, §3, §4, §5

[6] = system: Serratia marcescens ATCC 13880; assay: serial dilution test in the microtiter system, MIC; type: cell-based; settings: ATCC13880, Serrat. marsec., 37° C., 18-20 hours
Procedure: as §1, §2, §3, §4, §5

[7] = system: Escherichia coli ATCC 11775; assay: serial dilution test in the microtiter system, MIC; type: cell-based; settings: ATCC11775, E. Coli ATCC 11775, 37° C., 18-20 hours
Procedure: as §1, §2, §3, §4, §5

[8] = system: Proteus mirabilis Hamburgensis; assay: serial dilution test in the microtiter system, MIC; type: cell-based; settings: Prot. mirabilis ham., 37° C., 18-20 hours
Procedure: as §1, §2, §3, §4, §5

[9] = system: Escherichia coli ATCC 9637; assay: serial dilution test in the microtiter system, MIC; type: cell-based; settings: ATCC9637, E. Coli ATCC 9637, 37° C., 18-20 hours
Procedure: as §1, §2, §3, §4, §5

E.coli ATCC 11775 = assay: in vivo test against experimental E. coli infection in mice; parameters: species or system Female NMRI mice; settings: Escherichia coli, ATCC11775, sc, 168 h, dose at which 50% of the animals survived, subcutaneous, three times first day, twice second day, observation 7 days
Procedure: (§6) The compounds according to the invention were tested in vivo in mice against experimental infections. As pathogenic bacteria E.coli ATCC 11775 and Pseudomonas aeruginosa Walter were used. An intraperitoneal infection was induced in each mouse with 0.2 ml of a 5% mucin suspension of the bacteria corresponding to about 1.4×10^6 E. coli germs and 1.3×10^6 pseudomonas germs/mouse. Female NMRI mice were used, divided into groups of 10 animals. Two groups were untreated and the remaining groups were treated with different doses of the penicillins to be tested to determine the ED50 (dose at which 50% of the animals survived). The groups infected with E. coli were on the first day treated with the test compound three times ([…] post infectionem) and on the second day twice. The groups with the pseudomonas infection were on the first day treated with the test compound 6 times (1, 3, 5, 7, 9 and 11 hours post infectionem) and on the second and third day twice.
(§7) The observation time was in both cases 7 days.

[10] = system: Pseudomonas aeruginosa Walter; assay: in vivo test against experimental Pseudomonas infection in mice; parameters: species or system Female NMRI mice; settings: sc, 168 h, dose at which 50% of the animals survived, subcutaneous, 6 times first day, twice on second and third day, observation 7 days
Procedure: as §6, §7

Row | MIC [1] [µg/mL] | MIC [2] [µg/mL] | MIC [3] [µg/mL] | MIC [4] [µg/mL] | MIC [5] [µg/mL] | MIC [6] [µg/mL] | MIC [7] [µg/mL] | MIC [8] [µg/mL] | MIC [9] [µg/mL] | Structure (SMILES) | ED50 (E.coli ATCC 11775) [mg/kg] | ED50 [10] [mg/kg]
1 | 40 | 5 | 1.25 | 1.25 | 20 | 0.6 | 1.25 | 0.6 | 1.25 | COCCNc1ncc(NC(=O)N[C@@H](C(=O)N[C@@H]2C(=O)N3[C@@H]2SC(C)(C)[C@@H]3C(=O)O)c2ccc(O)cc2)c(O)n1 [A, D-α-[3-(4-hydroxy-2-{2'-methoxyethylamino}-5-pyrimidinyl)-ureido]-p-hydroxybenzyl-penicillin sodium] | 2 | 1.5
2 | 10 | 5 | 1.25 | 1.25 | 10 | 1.25 | 0.6 | 0.3 | 0.6 | CC1(C)S[C@@H]2[C@H](NC(=O)[C@H](NC(=O)Nc3cnc(NCCCO)nc3O)c3ccc(O)cc3)C(=O)N2[C@H]1C(=O)O [B, D-α-[3-(4-hydroxy-2-{3'-hydroxypropylamino-}-5-pyrimidinyl)-ureido]-p-hydroxy-benzylpenicillin sodium] | 0.8 | 1.2
3 | 10 | 2.5 | 2.5 | 2.5 | 10 | 1.25 | 0.6 | 0.3 | 0.3 | CCOC(=O)CCNc1ncc(NC(=O)NC(C(=O)NC2C(=O)N3C2SC(C)(C)C3C(=O)O)c2ccc(O)cc2)c(O)n1 [D, D-α-[3-(2-{2'-ethoxycarbonylethylamino}-4-hydroxy-5-pyrimidinyl)-ureido]-p-hydroxy-benzylpencillin sodium] | 4.2 | –
4 | 40 (≈ 86.7 µM) | – | – | – | 40 (≈ 86.7 µM) | 5 (≈ 10.8 µM) | – | 1.25 (≈ 2.71 µM) | – | CC1(C)S[C@@H]2[C@H](NC(=O)[C@H](NC(=O)N3CCNC3=O)c3ccccc3)C(=O)N2[C@H]1C(=O)O [F, azlocillin, reference compound] | – | –
